Experimental data reported in patent US6319702A, “Nucleic acids encoding mutant human carboxypeptidase A enzymes” (Glaxo Wellcome, Inc., priority 1993, dated 2001).

Key:
[1] = mouse, in vivo, iv
[2] = biological target: T1, wild type human carboxypeptidase A1 (Homo sapiens, UniProt P15085); assay: Enzyme kinetics of prodrugs with wild type human carboxypeptidase A1 (coupled assay); assay type: biochemical
T1 sequence (P15085 111-419): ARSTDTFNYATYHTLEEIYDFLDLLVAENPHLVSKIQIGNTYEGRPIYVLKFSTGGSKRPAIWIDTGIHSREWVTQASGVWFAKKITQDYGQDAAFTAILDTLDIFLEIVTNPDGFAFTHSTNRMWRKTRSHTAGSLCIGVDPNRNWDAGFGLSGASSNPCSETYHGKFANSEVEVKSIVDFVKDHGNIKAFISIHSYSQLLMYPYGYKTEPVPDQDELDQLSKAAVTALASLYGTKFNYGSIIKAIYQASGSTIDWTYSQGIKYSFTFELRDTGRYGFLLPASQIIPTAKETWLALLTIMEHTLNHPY
From the text: (§1) As indicated herein, the in vivo stable prodrug of the present invention should be a better substrate for a mutant enzyme than the corresponding wild type enzyme in order for the stable prodrug to be activated selectively at the tumour. […] The most relevant kinetic constant in the table is the kcat/Km, which provides an estimate of the second order rate constant for the enzyme catalyzed conversion of prodrug to methotrexate. Thus, the larger the kcat/Km, the more efficient the enzyme with a particular substrate. […] Thus, the single mutation at 268 from thr to gly converted very poor substrates in the wild type enzyme to excellent substrates in the mutant enzyme. […] Thus, the compounds are much better substrates for the mutant enzyme than the wild type enzyme which permits very specific tumor targeted activation of the nontoxic, stable prodrug to the active agent.
(§2) Kinetics were determined by a modification of the coupled assay of Kuefner, et al (1989) Biochemistry 28 2288-2297 in which the product MTX is converted by excess carboxypeptidase G to the pteroate of MTX. In this assay the reaction is followed spectrophotometrically at 315 nm; at this wavelength the change in molar absorbtivity for the coupled reaction was determined to be 9.57 mM^-1 cm^-1. Assays were performed at 25° C. in 25 mM tris-HCl, 100 mM NaCl, pH 7.4. Prodrugs were preincubated at 25° C. with buffer and 17 milliunits of Sigma #C-9658 carboxypeptidase G in 1 ml total volume. Assay was initiated with carboxypeptidase A or the appropriate mutant. Initial velocities were obtained, and standard Michaelis-Menten calculations were used to determine kinetic constants (in Biochemistry, Lehninger, A. L. 1970, Worth Publishers, Inc, NY).

[3] = test system: 268ala; assay: Enzyme kinetics of prodrugs with 268ala mutant of human CPA1 (coupled assay); assay type: biochemical; conditions: 25° C., pH 7.4
From the text: as §1, §2

[4] = in vivo; conditions: mouse, iv
[5] = test system: 268gly; assay: Enzyme kinetics of prodrugs with 268gly mutant of human CPA1 (coupled assay); assay type: biochemical
From the text: as §1, §2

[6] = Prodrug toxicity, maximum tolerated dose; conditions: Swiss nu/nu mice, IV daily for 5 days
[7] = IEF of proCPA and mature CPA; assay type: physicochemical
Procedure: The final OD600 was 14. […] All subsequent buffers contained 0.1 mM Zn-acetate. […] Total protein=368 mg.

[8] = substrate: CN(Cc1cnc2nc(N)nc(N)c2n1)c1ccc(C(=O)N[C@@H](CCC(=O)O)C(=O)N[C@@H](Cc2ccccc2)C(=O)O)cc1; assay: Enzyme kinetics of prodrugs with wild type human carboxypeptidase A1 (coupled assay); assay type: biochemical; conditions: other: Human CPA1, 25° C., pH 7.4
From the text: as §1
(§3) Kinetics were determined by a modification of the coupled assay of Kuefner, et al (1989) Biochemistry 28 2288-2297 in which the product MTX is converted by excess carboxypeptidase G to the pteroate of MTX. In this assay the reaction is followed spectrophotometrically at 315 nm; at this wavelength the change in molar absorbtivity for the coupled reaction was determined to be 9.57 mM^-1 cm^-1. Assays were performed at 25° C. in 25 mM tris-HCl, 100 mM NaCl, pH 7.4. […]

[9] = substrate: CN(Cc1cnc2nc(N)nc(N)c2n1)c1ccc(C(=O)N[C@@H](CCC(=O)O)C(=O)N[C@@H](Cc2ccccc2C2CCCC2)C(=O)O)cc1; assay: as above; assay type: biochemical; conditions: other: Human CPA1, 25° C., pH 7.4
From the text: as §1, §3

For `CN(Cc1cnc2nc(N)nc(N)c2n1)c1ccc(C(=O)N[C@@H](CCC(=O)O)C(=O)N[C@@H](Cc2cccc(C3CCC3)c2)C(=O)O)cc1`, which “dose showing some toxicity” value [1] is on record?
Its value is 30 mg/kg.

What about the “human CPA catalyzed reaction (in words)” value [2] of the same molecule?
Its value is “not measureable”.

What about the “kcat/Km for human CPA1 compared with that of the L-phenylalanine prodrug (in words)” value [2] of the same molecule?
Its value is “much lower”.

What about the “kcat (symbol ND)” value ([2]; Human CPA1, rate too slow to assay) of the same molecule?
Its value is “ND (not determined; rate to slow assay. kcat ≤ 0.0005/sec.)”.

And the Km [3]?
The Km was 160 µM.

And the kcat [3]?
The kcat was 0.12 s⁻¹.

And the MTD [4]?
Its MTD is under 30 mg/kg.

And the kcat/Km ([5]; 268Gly)?
Its kcat/Km is 1.8e+06 M⁻¹ s⁻¹.

What about the “activity of 268Gly relative to CPA1 with the L-phenylalanine prodrug of MTX” value ([5]; 268Gly with prodrug vs human CPA1 with L-phenylalanine prodrug) of the same molecule?
Its value is 4 times.

What about the Km ([5]; 268gly, 25° C., pH 7.4) of the same molecule?
Its Km is 1.8 µM.

What about the kcat ([5]; 268gly, 25° C., pH 7.4) of the same molecule?
The kcat was 3 s⁻¹.

What does the source list for `CN(Cc1cnc2nc(N)nc(N)c2n1)c1ccc(C(=O)N[C@@H](CCC(=O)O)C(=O)O)cc1` [methotrexate, reference compound]?
maximum tolerated dose (MTD) [6]: 2.5 mg/kg; MTD [4]: 4 mg/kg

B1: wild type human carboxypeptidase A1 (Homo sapiens) (protein)
chain: T1 sequence (P15085 111-419)
For B1, which pI [7] is on record?
The pI was 6.2.

What about the Km [8] of the same molecule?
The Km was 4.3 µM.

And the Km [9]?
Its Km is 61 µM.

B2: proCPA: procarboxypeptidase A, cleaved to mature CPA with trypsin (protein, UniProt P15085 17-419, looked up)
pro-form: KEDFVGHQVLRISVADEAQVQKVKELEDLEHLQLDFWRGPAHPGSPIDVRVPFPSIQAVKIFLESHGISYETMIEDVQSLLDEEQEQMFAFRSRARSTDTFNYATYHTLEEIYDFLDLLVAENPHLVSKIQIGNTYEGRPIYVLKFSTGGSKRPAIWIDTGIHSREWVTQASGVWFAKKITQDYGQDAAFTAILDTLDIFLEIVTNPDGFAFTHSTNRMWRKTRSHTAGSLCIGVDPNRNWDAGFGLSGASSNPCSETYHGKFANSEVEVKSIVDFVKDHGNIKAFISIHSYSQLLMYPYGYKTEPVPDQDELDQLSKAAVTALASLYGTKFNYGSIIKAIYQASGSTIDWTYSQGIKYSFTFELRDTGRYGFLLPASQIIPTAKETWLALLTIMEHTLNHPY
modifications: pro-form
notes: procarboxypeptidase A, cleaved to mature CPA with trypsin
With B2 as the molecule, how does the pI [7] read?
Its pI is 4.75.
